Assay results: US9822147B2, “Methods of treating ophthalmic diseases using NPR-B agonists” (priority 2009, dated 2017)
Numbered stars: 1 amine (or outer) side, 2 acyl side, 3 side chain; on linkers, the order of the positions; unused ones are H or OH. Square brackets hold non-standard residues; d marks the D form. Peptide text beside a SMILES is read from it. * marks the point of attachment. Phe(3,4-Cl2) = N[C@@H](Cc1ccc(Cl)c(Cl)c1)C(=O)O; X12 = CC(C)(C)CNC[C@@H](N[*:1])C(=O)[*:2]; Pro(4R-NH2) = N[C@H]1CN[C@H](C(=O)O)C1; dOrn(Me2) = CN(C)CCC[C@@H](N)C(=O)O; X2 = O=C([C@H]1CCCN([*:1])C1)[*:2]; Hyp = O=C(O)[C@@H]1C[C@@H](O)CN1; NHcycloheptyl = C1CCCC(N*)CC1; NMeL = CN[C@@H](CC(C)C)C(=O)O; Octanoyl = CCCCCCCC(=O)*; Api = NC1(C(=O)O)CCNCC1

Biological target: T1, NPR-B (Homo sapiens, UniProt P20594)
T1 construct: a functional assay using endogenously NPR-B expressing GTM-3 cells; endogenous in cells; host or cells: GTM-3 (human glaucoma trabecular meshwork cells)
T1 sequence (P20594 23-1047): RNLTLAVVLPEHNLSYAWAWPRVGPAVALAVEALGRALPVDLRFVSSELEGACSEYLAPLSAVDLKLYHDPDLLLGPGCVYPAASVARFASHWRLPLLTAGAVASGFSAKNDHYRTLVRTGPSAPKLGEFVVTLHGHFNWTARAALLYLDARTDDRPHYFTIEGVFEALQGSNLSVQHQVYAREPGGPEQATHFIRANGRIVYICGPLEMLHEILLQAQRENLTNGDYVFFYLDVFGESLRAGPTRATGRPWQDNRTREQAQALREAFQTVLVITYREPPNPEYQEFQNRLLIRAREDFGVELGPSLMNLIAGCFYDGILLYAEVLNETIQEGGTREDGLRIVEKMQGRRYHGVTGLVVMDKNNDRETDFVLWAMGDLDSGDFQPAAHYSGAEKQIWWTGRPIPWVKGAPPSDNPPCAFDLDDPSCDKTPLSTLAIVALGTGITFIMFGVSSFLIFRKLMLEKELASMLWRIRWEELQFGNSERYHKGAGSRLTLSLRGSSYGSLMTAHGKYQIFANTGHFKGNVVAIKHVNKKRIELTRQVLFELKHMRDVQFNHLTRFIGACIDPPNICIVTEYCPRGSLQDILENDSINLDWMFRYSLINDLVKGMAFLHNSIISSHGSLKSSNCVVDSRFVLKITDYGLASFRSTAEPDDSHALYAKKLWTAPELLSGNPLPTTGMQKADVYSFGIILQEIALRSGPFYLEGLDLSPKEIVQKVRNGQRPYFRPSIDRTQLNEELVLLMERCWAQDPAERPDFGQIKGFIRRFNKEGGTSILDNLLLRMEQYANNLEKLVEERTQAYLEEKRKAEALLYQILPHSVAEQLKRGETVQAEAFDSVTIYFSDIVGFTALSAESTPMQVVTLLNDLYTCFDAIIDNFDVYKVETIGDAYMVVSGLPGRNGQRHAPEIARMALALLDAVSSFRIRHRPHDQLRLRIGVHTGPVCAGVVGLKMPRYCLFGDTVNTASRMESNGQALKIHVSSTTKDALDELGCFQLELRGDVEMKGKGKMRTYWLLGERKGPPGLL
Test: NPR-B induced production of cyclic GMP in human glaucoma trabecular meshwork cells (GTM-3)
Assay type: cell-based
Details: group by EC50 and Emax (CNP = 100%); Table 4; read-out: Activity (group), NPR-B activation assayed with GTM-3 cells

| SMILES | EC50 [nM] |
| --- | --- |
| CCCCCCCC(=O)N1CCC[C@H](C(=O)N[C@@H](Cc2ccccc2)C(=O)N[C@H](CC(C)C)C(=O)N[C@@H](CC(C)C)C(=O)N2C[C@H](O)C[C@H]2C(=O)N(C)[C@@H](CC(C)C)C(=O)N[C@H](C(=O)N[C@@H](CCCNC(=N)N)C(=O)NC2CCCCCC2)[C@@H](C)O)C1 [JAL-1753, Occ-Sni-Phe-leu-Leu-Hyp-Nml-Thr-Arg-Che] (Octanoyl-[X2]F[dL]L[Hyp][NMeL]TR-NHcycloheptyl) | < 1000 |
| CCCCCCCC(=O)N[C@H](C)C(=O)N[C@@H](Cc1ccccc1)C(=O)NC1(C(=O)N[C@@H](CC(C)C)C(=O)N2C[C@H](N)C[C@H]2C(=O)N(C)[C@@H](CC(C)C)C(=O)N[C@@H](CC(=O)O)C(=O)N2CCC[C@H]2C(=O)N[C@H](C(N)=O)[C@@H](C)CC)CCNCC1 [JAL-1452, Occ-ala-Phe-Apc-Leu-Tap-Nml-Asp-Pro-Ile-NH2] (Octanoyl-[dA]F[Api]L[Pro(4R-NH2)][NMeL]DPI-NH2) | < 1000 |
| CCCCCCCC(=O)N[C@H](C)C(=O)N[C@@H](Cc1ccccc1)C(=O)N[C@H](CNCC(C)(C)C)C(=O)N[C@@H](CC(C)C)C(=O)N1C[C@H](N)C[C@H]1C(=O)N(C)[C@@H](CC(C)C)C(=O)N[C@@H](CC(=O)O)C(=O)N[C@@H](CCCNC(=N)N)C(=O)N[C@H](C(N)=O)[C@@H](C)CC [JAL-1463, Occ-ala-Phe-dap(1464)-Leu-Tap-Nml-Asp-Arg-Ile-NH2] (Octanoyl-[dA]F[X12]L[Pro(4R-NH2)][NMeL]DRI-NH2) | < 1000 |
| CCCCCCCC(=O)N1CCC[C@H](C(=O)N[C@@H](Cc2ccc(Cl)c(Cl)c2)C(=O)N[C@H](CC(C)C)C(=O)N[C@@H](CC(C)C)C(=O)N2C[C@H](O)C[C@H]2C(=O)N(C)[C@@H](CC(C)C)C(=O)N[C@@H](CC(=O)O)C(=O)N[C@@H](CCCNC(=N)N)C(=O)N[C@H](C(N)=O)[C@@H](C)CC)C1 [JAL-1496, Occ-Sni-Eaa-leu-Leu-Hyp-Nml-Asp-Arg-Ile-NH2] (Octanoyl-[X2][Phe(3,4-Cl2)][dL]L[Hyp][NMeL]DRI-NH2) | < 1000 |
| CCCCCCCC(=O)N[C@H](C)C(=O)N[C@@H](Cc1ccccc1)C(=O)NC1(C(=O)N[C@@H](CC(C)C)C(=O)N2C[C@H](O)C[C@H]2C(=O)N(C)[C@@H](CC(C)C)C(=O)N[C@@H](CC(=O)O)C(=O)N[C@@H](CCCNC(=N)N)C(=O)N[C@H](C(N)=O)[C@@H](C)CC)CCNCC1 [JAL-1338, Occ-ala-Phe-Apc-Leu-Hyp-Nml-Asp-Arg-Ile-NH2] (HELM PEPTIDE1{[CCCCCCCC(=O)[*:2]].[dA].F.[O=C(C1(N[*:1])CCNCC1)[*:2]].L.[Hyp].[meL].D.R.I.[am]}$$$$V2.0) | < 1000 |
| CCCCCCCC(=O)N1CCC[C@H](C(=O)N[C@@H](Cc2ccccc2)C(=O)NC2(C(=O)N[C@@H](CC(C)C)C(=O)N3C[C@H](N)C[C@H]3C(=O)N(C)[C@@H](CC(C)C)C(=O)N[C@@H](CC(=O)O)C(=O)N3CCC[C@H]3C(=O)N[C@H](C(N)=O)[C@@H](C)CC)CCNCC2)C1 [JAL-1561, Occ-Sni-Phe-Apc-Leu-Tap-Nml-Asp-Pro-Ile-NH2] (Octanoyl-[X2]F[Api]L[Pro(4R-NH2)][NMeL]DPI-NH2) | < 1000 |
| CCCCCCCC(=O)N1CCC[C@H](C(=O)N[C@@H](Cc2ccccc2)C(=O)N[C@H](CCCN(C)C)C(=O)N[C@@H](CC(C)C)C(=O)N2C[C@H](O)C[C@H]2C(=O)N(C)[C@@H](CC(C)C)C(=O)N[C@H](C(=O)N[C@@H](CCCNC(=N)N)C(=O)NC2CCCCCC2)[C@@H](C)O)C1 [JAL-1895, Occ-Sni-Phe-orn(Me2)-Leu-Hyp-Nml-Thr-Arg-Che] (Octanoyl-[X2]F[dOrn(Me2)]L[Hyp][NMeL]TR-NHcycloheptyl) | < 1000 |
| CCCCCCCC(=O)N1CCC[C@H](C(=O)N[C@@H](Cc2ccccc2)C(=O)N[C@H](CC(C)C)C(=O)N[C@@H](CCCC)C(=O)N2C[C@H](O)C[C@H]2C(=O)N(C)[C@@H](CC(C)C)C(=O)N[C@@H](CC(=O)O)C(=O)N[C@@H](CCCNC(=N)N)C(=O)N[C@H](C(N)=O)[C@@H](C)CC)C1 [JAL-1624, Occ-Sni-Phe-leu-Nle-Hyp-Nml-Asp-Arg-Ile-NH2] (HELM PEPTIDE1{[CCCCCCCC(=O)[*:2]].[O=C([C@H]1CCCN([*:1])C1)[*:2]].F.[dL].[Nle].[Hyp].[meL].D.R.I.[am]}$$$$V2.0) | < 1000 |
| CCCCCCCC(=O)N[C@H](C)C(=O)N[C@@H](Cc1ccccc1)C(=O)N[C@H](CCCN(C)C)C(=O)N[C@@H](CC(C)C)C(=O)N1C[C@H](O)C[C@H]1C(=O)N(C)[C@@H](CC(C)C)C(=O)N[C@@H](CC(=O)O)C(=O)N[C@@H](CCCNC(=N)N)C(=O)N[C@H](C(N)=O)[C@@H](C)CC [JAL-1288, Occ-ala-Phe-orn(Me2)-Leu-Hyp-Nml-Asp-Arg-Ile-NH2] (HELM PEPTIDE1{[CCCCCCCC(=O)[*:2]].[dA].F.[CN(C)CCC[C@@H](N[*:1])C(=O)[*:2]].L.[Hyp].[meL].D.R.I.[am]}$$$$V2.0) | < 1000 |
| CCCCCCCC(=O)N[C@H](C)C(=O)N[C@@H](Cc1ccccc1)C(=O)N[C@H](CC(C)C)C(=O)N[C@@H](CC(C)C)C(=O)N1C[C@H](O)C[C@H]1C(=O)N(C)[C@@H](CC(C)C)C(=O)N[C@@H](CC(=O)O)C(=O)N[C@@H](CCCNC(=N)N)C(=O)N[C@H](C(N)=O)C(C)(C)C [JAL-1352, Occ-ala-Phe-leu-Leu-Hyp-Nml-Asp-Arg-Tbg-NH2] (HELM PEPTIDE1{[CCCCCCCC(=O)[*:2]].[dA].F.[dL].L.[Hyp].[meL].D.R.[CC(C)(C)[C@H](N[*:1])C(=O)[*:2]].[am]}$$$$V2.0) | < 1000 |
| CCCCCCCC(=O)N1CCC[C@H](C(=O)N[C@@H](Cc2ccccc2)C(=O)N[C@H](CC(C)C)C(=O)N[C@@H](CC(C)C)C(=O)N2C[C@H](N)C[C@H]2C(=O)N(C)[C@@H](CC(C)C)C(=O)N[C@H](C(=O)N[C@@H](CCCNC(=N)N)C(=O)N[C@H](C(N)=O)[C@@H](C)CC)C(C)C)C1 [JAL-1401, Occ-Sni-Phe-leu-Leu-Tap-Nml-Val-Arg-Ile-NH2] (Octanoyl-[X2]F[dL]L[Pro(4R-NH2)][NMeL]VRI-NH2) | < 1000 |
| CCCCCCCC(=O)N[C@H](C)C(=O)N[C@@H](Cc1ccccc1)C(=O)N[C@H](CC(C)C)C(=O)N[C@@H](CC(C)C)C(=O)N1C[C@H](O)C[C@H]1C(=O)N[C@@H](CN(C)C)C(=O)N[C@@H](CC(=O)O)C(=O)N[C@@H](CCCNC(=N)N)C(=O)N[C@H](C(N)=O)[C@@H](C)CC [JAL-1367, Occ-ala-Phe-leu-Leu-Hyp-Dap(Me2)-Asp-Arg-Ile-NH2] (HELM PEPTIDE1{[CCCCCCCC(=O)[*:2]].[dA].F.[dL].L.[Hyp].[CN(C)C[C@H](N[*:1])C(=O)[*:2]].D.R.I.[am]}$$$$V2.0) | < 1000 |
| CCCCCCCC(=O)N[C@H](C)C(=O)N[C@@H](Cc1ccccc1)C(=O)N[C@H](CCCC)C(=O)N[C@@H](CC(C)C)C(=O)N1C[C@H](O)C[C@H]1C(=O)N(C)[C@@H](CC(C)C)C(=O)N[C@@H](CC(=O)O)C(=O)N[C@@H](CCCNC(=N)N)C(=O)N[C@H](C(N)=O)[C@@H](C)CC [JAL-1044, Occ-ala-Phe-nle-Leu-Hyp-Nml-Asp-Arg-Ile-NH2] (HELM PEPTIDE1{[CCCCCCCC(=O)[*:2]].[dA].F.[CCCC[C@@H](N[*:1])C(=O)[*:2]].L.[Hyp].[meL].D.R.I.[am]}$$$$V2.0) | < 1000 |
| CCCCc1cnc(N2CCC[C@H](C(=O)N[C@@H](Cc3ccccc3)C(=O)N[C@H](CC(C)C)C(=O)N[C@@H](CC(C)C)C(=O)N3C[C@H](O)C[C@H]3C(=O)N(C)[C@@H](CC(C)C)C(=O)N[C@@H](CC(=O)O)C(=O)N[C@@H](CCCNC(=N)N)C(=O)N[C@H](C(N)=O)[C@@H](C)CC)C2)s1 [JAL-1382, Sbt-Sni-Phe-leu-Leu-Hyp-Nml-Asp-Arg-Ile-NH2] (HELM PEPTIDE1{[CCCCc1cnc(N2CCC[C@H](C(=O)[*:2])C2)s1].F.[dL].L.[Hyp].[meL].D.R.I.[am]}$$$$V2.0) | < 1000 |
| CCCCc1cnc(Nc2ccc(C(=O)N[C@@H](Cc3ccccc3)C(=O)N[C@H](CC(C)C)C(=O)N[C@@H](CC(C)C)C(=O)N3C[C@H](O)C[C@H]3C(=O)N(C)[C@@H](CC(C)C)C(=O)N[C@@H](CC(=O)O)C(=O)N[C@@H](CCCNC(=N)N)C(=O)N[C@H](C(N)=O)[C@@H](C)CC)cc2)s1 [JAL-1380, (AR-201-68)-Phe-leu-Leu-Hyp-Nml-Asp-Arg-Ile-NH2] (HELM PEPTIDE1{[CCCCc1cnc(Nc2ccc(C(=O)[*:2])cc2)s1].F.[dL].L.[Hyp].[meL].D.R.I.[am]}$$$$V2.0) | < 1000 |
